{"source": "patent US20260183411A1", "about": "“TARGETING SORTILIN” (priority 2024, published 2026)", "key": {"GAPDH mRNA [1]": {"system": "GAPDH mRNA", "test": "GAPDH mRNA knockdown in differentiated Neuro-2a cells (RT-qPCR)", "assay_type": "cell-based", "settings": "Neuro2a − CQ", "procedure": "(§1) These GAPDH siRNA-peptide conjugates were then evaluated in HEK293 cells and the neuronal cell line, neuro2A."}, "GAPDH mRNA [2]": {"system": "GAPDH mRNA", "test": "GAPDH mRNA knockdown in HEK293 cells overexpressing SORT-1 (RT-qPCR)", "assay_type": "cell-based", "settings": "HEK293 + SORT1 − CQ", "procedure": "as §1"}, "housekeeping gene mRNA [3]": {"system": "housekeeping gene mRNA", "test": "Rat CNS delivery, intrathecal, 28-day (RT-qPCR)", "assay_type": "in vivo", "settings": "IT, 900 μg siRNA", "procedure": "SORT1 peptide 3 conjugate was prepared as described above. The SORT1 peptide 3 conjugate or a benchmark lipid were administered to rats intrathecally (IT), by injection into the spinal cord, for 28 days at 900 μg of siRNA. The delivery efficacy of the SORT1 peptide 3 conjugate was measured by measuring the amount of the housekeeping gene mRNA remaining in tissue samples at the end of the 28-day dosing regimen via RT-qPCR of samples from various parts of the rat CNS: lumbar spinal cord (LSC), cervical spinal cord (CSC), brainstem (BS), cerebellum (CB), somatosensory cortex (SSC), frontal cortex (FC), hippocampus (HC), thalamus (TH), liver, and heart. 28 day post-injection rats were sacrificed, and tissues collected (brain, spinal cord, heart, liver). Tissues were flash frozen and prepared for RT-qPCR detection of target housekeeping gene mRNA knockdown.\nTo characterize the amount of mRNA present in tissue samples from rats treated with SORT1 peptide 3 conjugates following the 28-day dosing regimen, control rats were injected with an equivalent volume of artificial cerebrospinal fluid (aCSF) as a comparative negative control."}, "housekeeping gene mRNA [4]": {"system": "housekeeping gene mRNA", "test": "Mouse CNS delivery, intracerebroventricular, 14/60-day (RT-qPCR)", "assay_type": "in vivo", "settings": "for ICV % housekeeping gene knockdown relative to aCSF: 14-day, ICV dosing", "procedure": "The delivery of the SORT1 peptide conjugates was further tested over longer dosing regimens of 14 days and 60 days. […] The delivery of the siRNA-peptide-conjugated was measured at the end of the 14- or 60-day dosing regimen via RT-qPCR of samples from various parts of the mouse CNS: lumbar spinal cord (LSC; FIGS. 25A and 25B), brainstem (BS; FIGS. 25C and 25D), cerebellum (CB; FIGS. 25E and 25F), frontal cortex (FC; FIGS. 26A and 26B), somatosensory cortex (SSC; FIGS. 26C and 26D), hippocampus (HC; FIGS. 26E and 26F), thalamus (TH; FIGS. 27A and 27B), liver (FIGS. 27C and 27D), and heart (FIGS. 27E and 27F). 14- and 60-days post-injection mice were sacrificed, and tissues collected (brain, spinal cord, heart, liver). Tissues were flash frozen and prepared for RT-qPCR detection of target housekeeping gene mRNA knockdown (quantified below in Table 20)."}, "housekeeping gene mRNA [5]": {"system": "housekeeping gene mRNA", "test": "Mouse CNS delivery, intrathecal, 7-day (RT-qPCR)", "assay_type": "in vivo", "settings": "IT dosing", "procedure": "These conjugates were administered to C57BL/6 mice intrathecally (IT), by injection into the spinal canal, for 7 days at 150 μg of siRNA. The delivery efficacy of the various peptide conjugates was measured by measuring the amount of the housekeeping gene mRNA remaining in tissue samples at the end of the 7-day dosing regimen via RT-qPCR of samples from various parts of the mouse CNS: lumbar spinal cord (LSC; FIG. 24A), brainstem (BS; FIG. 24B), cerebellum (CB; FIG. 24C), frontal cortex (FC; FIG. 24D), somatosensory cortex (SSC; FIG. 24E), hippocampus (HC; FIG. 24F), thalamus (TH;\nFIG. 24G), liver (FIG. 24H), and heart (FIG. 24I). 7 days post-injection mice were sacrificed, and tissues collected (brain, spinal cord, heart, liver). Tissues were flash frozen and prepared for RT-qPCR detection of target housekeeping gene mRNA knockdown (quantified below in Table 19). Furthermore, histological studies were performed in the brain and cervical spinal cord. In situ hybridization using miRNAscope and a probe that binds the housekeeping gene siRNA was used to assess the localization of the SORT1 peptide conjugates in cross sections of the brain and cervical spinal cord.\nTo characterize the amount of mRNA present in tissue samples following 7 days from mice treated with SORT1 peptide conjugates, control mice were injected with an equivalent volume of artificial cerebrospinal fluid (aCSF) as a comparative negative control."}}, "note": "Bridges are numbered along the chain shown (N, C = ends). Where no end group is shown, it is not given here. [ ]: non-standard residue; d: D form. tBuAla = CC(C)(C)C[C@H](N)C(=O)O; Tle = CC(C)(C)[C@H](N)C(=O)O; Nle = CCCC[C@H](N)C(=O)O", "data": [{"substance": "Maleimide-(bAla)(Sar)(Sar)(Sar)(Sar)APRWDAPLRDPALRQ(B13)(G48) [Peptide 2-GAPDH6-thiol]", "values": [{"measurement": "GAPDH mRNA % knockdown compared to untreated cells", "setting": "GAPDH mRNA [1]", "result": 0, "unit": "%"}, {"measurement": "GAPDH mRNA % knockdown compared to untreated cells", "setting": "GAPDH mRNA [2]", "result": 40, "unit": "%"}]}, {"substance": "SORT1 peptide 3 conjugate (RWCENKR[Nle]FTCRQ[Tle][tBuAla]; disulfide 3-11 (inferred); not fully specified (residue 6); printed as RWCENKR(Nle)FTCRQ(B13)(F02); also: conjugated via a linker to siRNA targeting a housekeeping gene mRNA, attachment presumably at the introduced Lys)", "values": [{"measurement": "housekeeping gene mRNA in the CNS relative to the aCSF control", "setting": "housekeeping gene mRNA [3]", "result": "significantly reduced"}, {"measurement": "ICV % housekeeping gene knockdown relative to aCSF", "setting": "housekeeping gene mRNA [4]; BS", "result": 79.6, "unit": "%"}, {"measurement": "ICV % housekeeping gene knockdown relative to aCSF", "setting": "housekeeping gene mRNA [4]; CB", "result": 66.6, "unit": "%"}, {"measurement": "ICV % housekeeping gene knockdown relative to aCSF", "setting": "housekeeping gene mRNA [4]; FC", "result": 72.6, "unit": "%"}, {"measurement": "ICV % housekeeping gene knockdown relative to aCSF", "setting": "housekeeping gene mRNA [4]; HC (deep brain)", "result": 72.1, "unit": "%"}, {"measurement": "ICV % housekeeping gene knockdown relative to aCSF", "setting": "housekeeping gene mRNA [4]; Heart", "result": 7.9, "unit": "%"}, {"measurement": "knockdown of the target gene in peripheral tissues (heart and liver) relative to aCSF", "setting": "housekeeping gene mRNA [4]; ICV, after 14 days", "result": "No significant knockdown"}, {"measurement": "ICV % housekeeping gene knockdown relative to aCSF", "setting": "housekeeping gene mRNA [4]; LSC, 100 μg siRNA", "result": 84.8, "unit": "%"}, {"measurement": "ICV % housekeeping gene knockdown relative to aCSF", "setting": "housekeeping gene mRNA [4]; Liver", "result": 8.7, "unit": "%"}, {"measurement": "ICV % housekeeping gene knockdown relative to aCSF", "setting": "housekeeping gene mRNA [4]; SSC", "result": 72.6, "unit": "%"}, {"measurement": "ICV % housekeeping gene knockdown relative to aCSF", "setting": "housekeeping gene mRNA [4]; TH (deep brain)", "result": 76.2, "unit": "%"}, {"measurement": "IT % housekeeping gene knockdown relative to aCSF", "setting": "housekeeping gene mRNA [5]; BS", "result": 77.0, "unit": "%"}, {"measurement": "IT % housekeeping gene knockdown relative to aCSF", "setting": "housekeeping gene mRNA [5]; CB", "result": 53.6, "unit": "%"}, {"measurement": "IT % housekeeping gene knockdown relative to aCSF", "setting": "housekeeping gene mRNA [5]; FC", "result": 50.1, "unit": "%"}, {"measurement": "IT % housekeeping gene knockdown relative to aCSF", "setting": "housekeeping gene mRNA [5]; HC (deep brain)", "result": 66.6, "unit": "%"}, {"measurement": "IT % housekeeping gene knockdown relative to aCSF", "setting": "housekeeping gene mRNA [5]; Heart", "result": 47.0, "unit": "%"}, {"measurement": "IT % housekeeping gene knockdown relative to aCSF", "setting": "housekeeping gene mRNA [5]; LSC, 150 μg siRNA", "result": 94.7, "unit": "%"}, {"measurement": "IT % housekeeping gene knockdown relative to aCSF", "setting": "housekeeping gene mRNA [5]; Liver", "result": 0.0, "unit": "%"}, {"measurement": "IT % housekeeping gene knockdown relative to aCSF", "setting": "housekeeping gene mRNA [5]; SSC", "result": 61.4, "unit": "%"}, {"measurement": "IT % housekeeping gene knockdown relative to aCSF", "setting": "housekeeping gene mRNA [5]; TH (deep brain)", "result": 33.4, "unit": "%"}]}]}
